Several values for one entry are separate records, joined by “and”; a condition that tells them apart may be missing. Equal values may be shown once.
Test: xn = mol fraction of the nth substance listed
Settings: 100 kPa

CCCCCCCC[n+]1ccccc1.O=S(=O)([N-]S(=O)(=O)C(F)(F)F)C(F)(F)F + CCCCOC(C)=O
Settings | electrical conductivity [S/m]
298.15 K, x2 = 0.6824 | 0.371

CC(=O)[O-].Cn1cc[nH+]c1 + CCCC[N+]1(C)CCCC1.O=S(=O)([N-]S(=O)(=O)C(F)(F)F)C(F)(F)F
298.15 K
Settings | viscosity [mPa·s]
x1 = 0.19 | 52.7
x1 = 0.5 | 26.9
x1 = 1 | 6.22

OC[C@H]1O[C@@H](O[C@H]2[C@H](O)[C@@H](O)[C@@H](O)O[C@@H]2CO)[C@H](O)[C@@H](O)[C@H]1O + CCCC[N+](C)(CCCC)CCCC.[Cl-] + O
viscosity
Settings | 293.15 K | 298.15 K | 303.15 K | 308.15 K | 313.15 K
x1 = 0.0003513, x2 = 0 | 1.018 mPa·s | 0.904 mPa·s | 0.804 mPa·s | 0.725 mPa·s | 0.658 mPa·s
x1 = 0.0003543, x2 = 0.000702 | 1.043 mPa·s | 0.929 mPa·s | 0.828 mPa·s | 0.745 mPa·s | 0.679 mPa·s
x1 = 0.0003546, x2 = 0.0003601 | 1.027 mPa·s | 0.917 mPa·s | 0.819 mPa·s | 0.735 mPa·s | 0.667 mPa·s
x1 = 0.0003558, x2 = 0.001062 | 1.057 mPa·s | 0.948 mPa·s | 0.843 mPa·s | 0.757 mPa·s | 0.696 mPa·s
x1 = 0.0003573, x2 = 0.001421 | 1.069 mPa·s | 0.961 mPa·s | 0.856 mPa·s | 0.77 mPa·s | 0.706 mPa·s
x1 = 0.0007059, x2 = 0 | 1.038 mPa·s | 0.919 mPa·s | 0.812 mPa·s | 0.731 mPa·s | 0.662 mPa·s
x1 = 0.000709, x2 = 0.00036 | 1.049 mPa·s | 0.937 mPa·s | 0.834 mPa·s | 0.747 mPa·s | 0.673 mPa·s
x1 = 0.0007119, x2 = 0.0007018 | 1.067 mPa·s | 0.948 mPa·s | 0.843 mPa·s | 0.758 mPa·s | 0.689 mPa·s
x1 = 0.0007149, x2 = 0.001061 | 1.081 mPa·s | 0.969 mPa·s | 0.86 mPa·s | 0.771 mPa·s | 0.708 mPa·s
x1 = 0.000718, x2 = 0.001421 | 1.094 mPa·s | 0.984 mPa·s | 0.876 mPa·s | 0.785 mPa·s | 0.72 mPa·s
x1 = 0.001058, x2 = 0 | 1.059 mPa·s | 0.936 mPa·s | 0.827 mPa·s | 0.741 mPa·s | 0.671 mPa·s
x1 = 0.001063, x2 = 0.0003599 | 1.07 mPa·s | 0.952 mPa·s | 0.848 mPa·s | 0.758 mPa·s | 0.681 mPa·s
x1 = 0.001067, x2 = 0.0007015 | 1.088 mPa·s | 0.966 mPa·s | 0.857 mPa·s | 0.77 mPa·s | 0.698 mPa·s
x1 = 0.001072, x2 = 0.001061 | 1.106 mPa·s | 0.989 mPa·s | 0.877 mPa·s | 0.785 mPa·s | 0.72 mPa·s
x1 = 0.001077, x2 = 0.00142 | 1.118 mPa·s | 1.003 mPa·s | 0.891 mPa·s | 0.799 mPa·s | 0.733 mPa·s
x1 = 0.001413, x2 = 0 | 1.079 mPa·s | 0.955 mPa·s | 0.843 mPa·s | 0.752 mPa·s | 0.68 mPa·s
x1 = 0.001419, x2 = 0.0003598 | 1.093 mPa·s | 0.971 mPa·s | 0.86 mPa·s | 0.77 mPa·s | 0.694 mPa·s
x1 = 0.001425, x2 = 0.0007013 | 1.11 mPa·s | 0.986 mPa·s | 0.872 mPa·s | 0.784 mPa·s | 0.709 mPa·s
x1 = 0.001431, x2 = 0.001061 | 1.127 mPa·s | 1.006 mPa·s | 0.893 mPa·s | 0.8 mPa·s | 0.734 mPa·s
x1 = 0.001437, x2 = 0.00142 | – | 1.14 mPa·s | 1.02 mPa·s | 0.909 mPa·s | 0.747 mPa·s and 0.816 mPa·s
x1 = 0.001765, x2 = 0 | 1.097 mPa·s | 0.971 mPa·s | 0.858 mPa·s | 0.764 mPa·s | 0.689 mPa·s
x1 = 0.001774, x2 = 0.0003596 | 1.118 mPa·s | 0.987 mPa·s | 0.879 mPa·s | 0.783 mPa·s | 0.705 mPa·s
x1 = 0.00178, x2 = 0.000701 | 1.133 mPa·s | 1.003 mPa·s | 0.889 mPa·s | 0.797 mPa·s | 0.719 mPa·s
x1 = 0.001787, x2 = 0.00106 | 1.15 mPa·s | 1.024 mPa·s | 0.909 mPa·s | 0.814 mPa·s | 0.745 mPa·s
x1 = 0.001795, x2 = 0.001419 | – | 1.164 mPa·s | 1.038 mPa·s | 0.923 mPa·s | 0.76 mPa·s and 0.829 mPa·s

— the CheMixHub ionic liquid set
